# Test results: article PMC10178848, “Modulating fast skeletal muscle contraction protects skeletal muscle in animal models of Duchenne muscular dystrophy” (The Journal of Clinical Investigation, 2023)
# Where two headings read alike, the source gives them in different places.
# Test system: GRMD plasma proteins
# Assay type: in vivo, dog
# [1] = Post-Treatment to GRMD baseline, Increased in GRMD
smiles,measurement,setting,value
O=c1ccc(-c2cnc(OCC(F)(F)F)nc2)nn1Cc1cncc(F)c1 [EDG-5506],Change from GRMD Baseline (fraction): Tyrosine-protein phosphatase non-receptor type 11 (PTPN11),[1],-0.1671 fraction
same,Change from GRMD Baseline (fraction): UMP-CMP kinase (CMPK1),[1],0.3595 fraction
same,Change from GRMD Baseline (fraction): Ubiquitin carboxyl-terminal hydrolase 25 (USP25),[1],0.0097 fraction
same,Change from GRMD Baseline (fraction): Ubiquitin carboxyl-terminal hydrolase isozyme L1 (UCHL1),[1],0.0043 fraction
same,Change from GRMD Baseline (fraction): Ubiquitin-fold modifier 1 (UFM1),[1],-0.1676 fraction
same,Change from GRMD Baseline (fraction): Vascular cell adhesion protein 1 (VCAM1),[1],-0.0398 fraction
same,Change from GRMD Baseline (fraction): Vitamin K-dependent protein C (PROC),[1],0.0209 fraction
same,Change from GRMD Baseline (fraction): Vitronectin (VTN),[1],-0.1254 fraction
same,Change from GRMD Baseline (fraction): cAMP-dependent protein kinase catalytic subunit alpha (PRKACA),[1],-0.3909 fraction
same,Change from GRMD Baseline (fraction): dCTP pyrophosphatase 1 (DCTPP1),[1],-0.286 fraction
same,Chitotriosidase-1 (CHIT1): Change from GRMD Baseline (fraction),[1],0.0322 fraction
same,Chorionic somatomammotropin hormone (CSH1 CSH2): Change from GRMD Baseline (fraction),[1],-0.0339 fraction
same,Chromobox protein homolog 5 (CBX5): Change from GRMD Baseline (fraction),[1],0.2228 fraction
same,Coagulation Factor X (F10): Change from GRMD Baseline (fraction),[1],0.1794 fraction
same,Coagulation factor IX (F9): Change from GRMD Baseline (fraction),[1],0.0608 fraction
same,"Complement component 1 Q subcomponent-binding protein, mitochondrial (C1QBP): Change from GRMD Baseline (fraction)",[1],0.0901 fraction
same,Connective tissue growth factor (CTGF): Change from GRMD Baseline (fraction),[1],-0.0093 fraction
same,Cyclin-dependent kinase 1:G2/mitotic-specific cyclin-B1 complex (CDC2 CCNB1): Change from GRMD Baseline (fraction),[1],0.0208 fraction
same,Cyclin-dependent kinase 5:Cyclin-dependent kinase 5 activator 1 complex (CDK5 CDK5R1): Change from GRMD Baseline (fraction),[1],0.0687 fraction
same,Cytokine receptor-like factor 1:Cardiotrophin-like cytokine factor 1 Complex (CRLF1 CLCF1): Change from GRMD Baseline (fraction),[1],0.0138 fraction
same,"Dual 3',5'-cyclic-AMP and -GMP phosphodiesterase 11A (PDE11A): Change from GRMD Baseline (fraction)",[1],0.0321 fraction
same,"Ectodysplasin-A, secreted form (EDA): Change from GRMD Baseline (fraction)",[1],0.0092 fraction
same,Endothelial cell-selective adhesion molecule (ESAM): Change from GRMD Baseline (fraction),[1],-0.0069 fraction
same,Endothelial monocyte-activating polypeptide 2 (AIMP1): Change from GRMD Baseline (fraction),[1],-0.0021 fraction
same,Extracellular superoxide dismutase [Cu-Zn] (SOD3): Change from GRMD Baseline (fraction),[1],0.0677 fraction
same,Ficolin-2 (FCN2): Change from GRMD Baseline (fraction),[1],0.0082 fraction
same,Fms-related tyrosine kinase 3 ligand (FLT3LG): Change from GRMD Baseline (fraction),[1],0.0399 fraction
same,Galactoside 3(4)-L-fucosyltransferase (FUT3): Change from GRMD Baseline (fraction),[1],0.1128 fraction
same,Galectin-10 (CLC): Change from GRMD Baseline (fraction),[1],0.0216 fraction
same,Glial fibrillary acidic protein (GFAP): Change from GRMD Baseline (fraction),[1],-0.0254 fraction
same,Glycylpeptide N-tetradecanoyltransferase 1 (NMT1): Change from GRMD Baseline (fraction),[1],0.0839 fraction
same,Group 10 secretory phospholipase A2 (PLA2G10): Change from GRMD Baseline (fraction),[1],0.0518 fraction
same,Growth hormone receptor (GHR): Change from GRMD Baseline (fraction),[1],0.0479 fraction
same,Growth-regulated alpha protein (CXCL1): Change from GRMD Baseline (fraction),[1],-0.0445 fraction
same,Growth/differentiation factor 15 (GDF15): Change from GRMD Baseline (fraction),[1],-0.0019 fraction
same,Hepatocyte growth factor (HGF): Change from GRMD Baseline (fraction),[1],0.0007 fraction
same,Hepcidin (HAMP): Change from GRMD Baseline (fraction),[1],-0.0103 fraction
same,Immunoglobulin M (IGHM IGJ IGK@ IGL@): Change from GRMD Baseline (fraction),[1],0.0023 fraction
same,Importin subunit alpha-1 (KPNA2): Change from GRMD Baseline (fraction),[1],-0.1696 fraction
same,Induced myeloid leukemia cell differentiation protein Mcl-1 (MCL1): Change from GRMD Baseline (fraction),[1],-0.1236 fraction
same,Inorganic pyrophosphatase (PPA1): Change from GRMD Baseline (fraction),[1],-0.0163 fraction
same,Insulin-like growth factor-binding protein 7 (IGFBP7): Change from GRMD Baseline (fraction),[1],0.064 fraction
same,Integrin alpha-IIb: beta-3 complex (ITGA2B ITGB3): Change from GRMD Baseline (fraction),[1],0.0053 fraction
same,Interleukin-4 (IL4): Change from GRMD Baseline (fraction),[1],-0.0251 fraction
same,Interleukin-6 receptor subunit beta (IL6ST): Change from GRMD Baseline (fraction),[1],0.06 fraction
same,Interleukin-8 (CXCL8): Change from GRMD Baseline (fraction),[1],-0.0291 fraction
same,Interleukin-10 receptor subunit beta (IL10RB): Change from GRMD Baseline (fraction),[1],-0.0324 fraction
same,Interleukin-17 receptor C (IL17RC): Change from GRMD Baseline (fraction),[1],-0.0159 fraction
same,Interleukin-18 receptor accessory protein (IL18RAP): Change from GRMD Baseline (fraction),[1],-0.0292 fraction
same,Interleukin-27 (IL27 EBI3): Change from GRMD Baseline (fraction),[1],-0.0149 fraction
same,Interleukin-36 beta (IL36B): Change from GRMD Baseline (fraction),[1],0.0098 fraction
same,Killer cell immunoglobulin-like receptor 3DS1 (KIR3DS1): Change from GRMD Baseline (fraction),[1],0.1583 fraction
same,Killer cell lectin-like receptor subfamily F member 1 (KLRF1): Change from GRMD Baseline (fraction),[1],0.2014 fraction
same,Lamin-B1 (LMNB1): Change from GRMD Baseline (fraction),[1],-0.0238 fraction
same,Laminin (LAMA1 LAMB1 LAMC1): Change from GRMD Baseline (fraction),[1],0.0548 fraction
same,Low-density lipoprotein receptor-related protein 1B (LRP1B): Change from GRMD Baseline (fraction),[1],-0.0345 fraction
same,Macrophage-stimulating protein receptor (MST1R): Change from GRMD Baseline (fraction),[1],0.0197 fraction
same,Matrilin-3 (MATN3): Change from GRMD Baseline (fraction),[1],-0.0333 fraction
same,Matrilysin (MMP7): Change from GRMD Baseline (fraction),[1],-0.0041 fraction
same,N-terminal pro-BNP (NPPB): Change from GRMD Baseline (fraction),[1],-0.0202 fraction
same,NKG2D ligand 3 (ULBP3): Change from GRMD Baseline (fraction),[1],0.0123 fraction
same,Neural cell adhesion molecule L1-like protein (CHL1): Change from GRMD Baseline (fraction),[1],-0.0412 fraction
same,Neurexophilin-1 (NXPH1): Change from GRMD Baseline (fraction),[1],0.3842 fraction
same,OX-2 membrane glycoprotein (CD200): Change from GRMD Baseline (fraction),[1],0.1164 fraction
same,Persephin (PSPN): Change from GRMD Baseline (fraction),[1],-0.0043 fraction
same,"Phosphatidylinositol 4,5-bisphosphate 3-kinase catalytic subunit gamma isoform (PIK3CG): Change from GRMD Baseline (fraction)",[1],0.0292 fraction
same,Pituitary adenylate cyclase-activating polypeptide 27 (ADCYAP1): Change from GRMD Baseline (fraction),[1],0.0483 fraction
same,Platelet factor 4 (PF4): Change from GRMD Baseline (fraction),[1],0.0577 fraction
same,Platelet glycoprotein VI (GP6): Change from GRMD Baseline (fraction),[1],0.0535 fraction
same,Prolactin (PRL): Change from GRMD Baseline (fraction),[1],-0.0256 fraction
same,Prolactin receptor (PRLR): Change from GRMD Baseline (fraction),[1],0.085 fraction
same,Proteasome subunit alpha type-6 (PSMA6): Change from GRMD Baseline (fraction),[1],0.0724 fraction
same,Protein E7_HPV18 (Human-virus): Change from GRMD Baseline (fraction),[1],0.0128 fraction
same,Proto-oncogene tyrosine-protein kinase receptor Ret (RET): Change from GRMD Baseline (fraction),[1],0.0043 fraction
same,RNA-binding protein 39 (RBM39): Change from GRMD Baseline (fraction),[1],-0.1347 fraction
same,Ras GTPase-activating protein 1 (RASA1): Change from GRMD Baseline (fraction),[1],-0.0705 fraction
same,Ribosome maturation protein SBDS (SBDS): Change from GRMD Baseline (fraction),[1],0.0714 fraction
same,SPARC-related modular calcium-binding protein 1 (SMOC1): Change from GRMD Baseline (fraction),[1],-0.0726 fraction
same,Secreted and transmembrane protein 1 (SECTM1): Change from GRMD Baseline (fraction),[1],-0.1238 fraction
same,Serine/threonine-protein kinase PAK 3 (PAK3): Change from GRMD Baseline (fraction),[1],0.077 fraction
same,Serine/threonine-protein kinase PAK 7 (PAK7): Change from GRMD Baseline (fraction),[1],-0.0176 fraction
same,Serine/threonine-protein kinase pim-1 (PIM1): Change from GRMD Baseline (fraction),[1],0.0551 fraction
same,Serum amyloid A-1 protein (SAA1): Change from GRMD Baseline (fraction),[1],-0.1642 fraction
same,Sialic acid-binding Ig-like lectin 7 (SIGLEC7): Change from GRMD Baseline (fraction),[1],-0.0123 fraction
same,Small ubiquitin-related modifier 3 (SUMO3): Change from GRMD Baseline (fraction),[1],-0.0342 fraction
same,Stromelysin-1 (MMP3): Change from GRMD Baseline (fraction),[1],0.0381 fraction
same,Stromelysin-2 (MMP10): Change from GRMD Baseline (fraction),[1],-0.0469 fraction
same,Synaptosomal-associated protein 25 (SNAP25): Change from GRMD Baseline (fraction),[1],0.0227 fraction
same,T-cell surface glycoprotein CD4 (CD4): Change from GRMD Baseline (fraction),[1],0.004 fraction
same,T-lymphocyte activation antigen CD86 (CD86): Change from GRMD Baseline (fraction),[1],0.0642 fraction
same,TATA-box-binding protein (TBP): Change from GRMD Baseline (fraction),[1],-0.0819 fraction
same,Thyroxine-binding globulin (SERPINA7): Change from GRMD Baseline (fraction),[1],-0.0761 fraction
same,Transcription factor IIIB 90 kDa subunit (BRF1): Change from GRMD Baseline (fraction),[1],0.0702 fraction
same,Tumor necrosis factor ligand superfamily member 18 (TNFSF18): Change from GRMD Baseline (fraction),[1],0.0235 fraction
same,Tumor necrosis factor receptor superfamily member 13B (TNFRSF13B): Change from GRMD Baseline (fraction),[1],-0.0295 fraction
same,Tumor necrosis factor receptor superfamily member 13C (TNFRSF13C): Change from GRMD Baseline (fraction),[1],-0.0266 fraction
same,Tumor-associated calcium signal transducer 2 (TACSTD2): Change from GRMD Baseline (fraction),[1],-0.0008 fraction
same,Ubiquitin-conjugating enzyme E2 G2 (UBE2G2): Change from GRMD Baseline (fraction),[1],-0.0144 fraction
same,WNT1-inducible-signaling pathway protein 1 (WISP1): Change from GRMD Baseline (fraction),[1],0.0281 fraction
same,WNT1-inducible-signaling pathway protein 3 (WISP3): Change from GRMD Baseline (fraction),[1],0.0371 fraction
same,alpha-2-macroglobulin receptor-associated protein (LRPAP1): Change from GRMD Baseline (fraction),[1],-0.0289 fraction
same,"cGMP-dependent 3',5'-cyclic phosphodiesterase (PDE2A): Change from GRMD Baseline (fraction)",[1],0.1206 fraction
same,Change from GRMD Baseline (fraction),"Protein deglycase DJ-1 (PARK7), EDG-5506 treatment to GRMD baseline",0.1853 fraction
same,Change from GRMD Baseline (fraction),"Protein deglycase DJ-1 (PARK7), Post-Treatment to GRMD baseline",-0.0618 fraction
same,Change from GRMD Baseline (fraction),"Proto-oncogene vav (VAV1), EDG-5506 treatment to GRMD baseline",0.0609 fraction
same,Change from GRMD Baseline (fraction),"Proto-oncogene vav (VAV1), Post-Treatment to GRMD baseline",0.2228 fraction
same,Change from GRMD Baseline (fraction),"SH2 domain-containing protein 1A (SH2D1A), EDG-5506 treatment to GRMD baseline",0.0272 fraction
same,Change from GRMD Baseline (fraction),"SH2 domain-containing protein 1A (SH2D1A), Post-Treatment to GRMD baseline",0.0814 fraction
same,Change from GRMD Baseline (fraction),"Serine/threonine-protein kinase TBK1 (TBK1), EDG-5506 treatment to GRMD baseline",0.0144 fraction
same,Change from GRMD Baseline (fraction),"Serine/threonine-protein kinase TBK1 (TBK1), Post-Treatment to GRMD baseline",0.0415 fraction
same,Change from GRMD Baseline (fraction),"Sialic acid-binding Ig-like lectin 14 (SIGLEC14), EDG-5506 treatment to GRMD baseline",0.0643 fraction
same,Change from GRMD Baseline (fraction),"Sialic acid-binding Ig-like lectin 14 (SIGLEC14), Post-Treatment to GRMD baseline",-0.0249 fraction
same,Change from GRMD Baseline (fraction),"Sorting nexin-4 (SNX4), EDG-5506 treatment to GRMD baseline",-0.0709 fraction
same,Change from GRMD Baseline (fraction),"Sorting nexin-4 (SNX4), Post-Treatment to GRMD baseline",0.088 fraction
same,Change from GRMD Baseline (fraction),"Thrombin (F2), EDG-5506 treatment to GRMD baseline",0.2436 fraction
same,Change from GRMD Baseline (fraction),"Thrombin (F2), Post-Treatment to GRMD baseline",0.0387 fraction
same,Change from GRMD Baseline (fraction),"Transgelin-2 (TAGLN2), EDG-5506 treatment to GRMD baseline",0.1205 fraction
same,Change from GRMD Baseline (fraction),"Transgelin-2 (TAGLN2), Post-Treatment to GRMD baseline",-0.0633 fraction
same,Change from GRMD Baseline (fraction),"WAP, kazal, immunoglobulin, kunitz and NTR domain-containing protein 1 (WFIKKN1), EDG-5506 treatment to GRMD baseline",0.1609 fraction
same,Change from GRMD Baseline (fraction),"WAP, kazal, immunoglobulin, kunitz and NTR domain-containing protein 1 (WFIKKN1), Post-Treatment to GRMD baseline",-0.0946 fraction
